Data reported in patent US20110020312A1, “METHODS FOR TREATMENT OF METABOLIC DISORDERS USING EPIMETABOLIC SHIFTERS, MULTIDIMENSIONAL INTRACELLULAR MOLECULES, OR ENVIRONMENTAL INFLUENCERS” (priority 2009, published 2011).

How the values were obtained:
[1] = system: PaCa-2 cells; experiment: Extracellular acidification rate (ECAR), SeaHorse XF analyzer; assay type: cell-based; conditions: normoxia, high glucose (17 mM)
Source text: Environmental influencers (e.g., MIMs or Epi-shifters) may also be identified by changes in cellular energetics. One example of the measurement of cellular energetics are the real-time measures of the consumption of molecular oxygen and/or the change in pH of the media of a cell culture. For example, the ability of a potential epi-shifter to modulate the metabolic state of a cell may be analyzed using, for example, the XF24 Analyzer (Seahorse, Inc.). This technology allows for real time detection of oxygen and pH changes in a monolayer of cells in order to evaluate the bioenergetics of a cell microenvironment. The XF24 Analyzer measures and compares the rates of oxygen consumption (OCR), which is a measure of aerobic metabolism, and extracellular acidification (ECAR), which is a measure of glycolysis, both key indicators of cellular energetics.
(SeaHorse Biosciences Inc, North Billerica, Mass.).
In contrast to normal cells, cancer cells are phenotypically primed to use high glucose for ATP generation (enhanced glycolysis) resulting in higher ECAR (Table 53, ECAR for untreated normoxia 17 mM) at 21 mpH/min. […] The associated decrease in OCR in these cells was likely associated with increased efficiency of the mitochondrial OXPHOS.

[2] = system: HepG2 (liver cancer) cells; experiment: PCR Diabetes Array; assay type: cell-based
Procedure: The treatment was initiated on 1×10^5 cells per well, following the procedure utilized in the PaCa2 cells (above, Examples 9-11). However, the total amount of RNA that was extracted from these samples was lower than expected. Reverse transcription is normally done using 1 μg of total RNA (determined by measurement at 260 nm). The maximum volume that can be used per reverse transcription is 8 μl.

[3] = system: normal fibroblast; experiment: Bcl2 level after co-administration of CoQ-10 and VEGF; assay type: cell-based; conditions: co-administration with VEGF
[4] = system: a variety of cell types; experiment: Western blot analysis (Bcl-xL, Vimentin, oxidative phosphorylation and mitochondrial membrane proteins); assay type: cell-based; conditions: 50 or 100 μM Q10
Procedure: Approximately 50 μg of protein were assayed per sample by immunoblotting. All treatments were run in triplicate with controls. […] The primary antibodies were incubated overnight at 4 degrees C. in a 5% BSA and TBST solution. Secondary antibodies were incubated for one hour at 4 degrees. All antibodies were purchased from Cell Signaling Technology. Antibodies were used at a ratio of 1:1000, with the exception of PActin at a ratio of 1:5000. Blots were developed and results were quantified using the NIH Java based densitometer analysis software Image J. All blots were also probed for and normalized to their respective PActin expression.
The first experiment processed and evaluated by Western blot and 2-D gel electrophoresis was carried out on the skin cancer cell line SKMEL-28.
A variety of cell types were evaluated by Western blot analysis against an antibody for Bcl-xL (FIG. 14), an antibody for Vimentin (FIG. 15), a series of antibodies for mitochondrial oxidative phosphorylation function (FIGS. 16-21) and against a series of antibodies related to mitochondrial membrane integrity (FIGS. 22-27).

[5] = system: Hif1 alpha; experiment: Western blot, Hif1 alpha levels; assay type: cell-based, human; conditions: for Hif1 alpha Lower Band Normalized Volume: HASMC
Procedure: The Actin blots were stripped by incubating for 30 minutes with methanol, followed by two 10 minute washes with TBS-T, then 30 minutes of incubation with Stripping buffer at 50 deg C., and followed by two washes with 100 ml or more of TBS-T for 30′ each. The blots were scanned in laser scanner to check for complete stripping. The blots were activated with methanol for 5 seconds, washed with water for 5 minutes, and TBST for 15 minutes. The blots were blocked for 1 hour with 5% blocking reagent in TBS-T at room temperature and then washed 3 times with TBS-T (1×-15′; 2×5′ each) and probed with the primary antibody for Hif 1 alpha, Caspase 3 or PDHB in 5% BSA (at 1:200 by incubation overnight at 4 deg C. with gentle shaking. The primary antibody for Hif 1 alpha (Abcam ab2185; antirabbit) was at 1:500 dilution in 5% BSA. The primary antibody for Caspase 3 (Santacruz sc7272; antirabbit) was at 1:200 dilution in 5% BSA. The primary antibody for Pyruvate Dehydrogenase beta (PDHB) (Novus Biologicals H00005162-M03; antimouse) was at 1:500 dilution in 5% BSA. After incubation with primary antibodies, the membranes were washed 3 times with TBS-T (1×-15′; 2×5′ each) and probed with the secondary antibody (PDHB antimouse; Hif 1a and Caspase 3 antirabbit; 1:10,000 dilution) for 1 h at room temperature. After 1 h of incubation with secondary antibodies, the blots were washed 3 times with TBS-T (1×-15′; 2×5′ each) and then incubated with ECF reagent for 5 minutes and then each blot scanned with 5100 Fuji Laser scanner at 25 uM resolution, 16 bit, green laser, at 400V and at 500 V.
The above blots were stripped by incubating for 30 minutes with methanol, followed by two 10 minute washes with TBS-T, then 30 minutes of incubation with Stripping buffer at 50 deg C., and followed by two washes with 100 ml or more of TBS-T for 30′ each. The blots were activated with methanol for 5 seconds, washed with water for 5 minutes, and TBST for 15 minutes. The blots are blocked for 1 hour with 5% blocking reagent in TBS-T at room temperature and then washed 3 times with TBS-T (1×-15′; 2×5′ each) and probed with the primary antibody for Transaldolase or Hifla in 5% BSA by incubation overnight at 4 deg C. with gentle shaking. The primary antibody for Transaldolase (Abcam ab67467; antimouse) was at 1:500 dilution. The primary antibody for Hifla (Abcam ab2185; antirabbit) was at 1:500 dilution. After incubation with primary antibodies, the membranes were washed 3 times with TBS-T (1×-15′; 2×5′ each) and probed with the secondary antibody (antimouse or antirabbit; 1:10,000 dilution) for 1 h on the orbital tilting shaker at room temperature. After 1 h of incubation with secondary antibodies, the blots were washed 3 times with TBS-T (1×-15′; 2×5′ each) and then incubated with ECF reagent for 5 minutes and then each blot scanned with 5100 Fuji Laser scanner at 25 uM resolution, 16 bit, green laser, at 400 & 500V.

COC1=C(OC)C(=O)C(C/C=C(\C)CC/C=C(\C)CC/C=C(\C)CC/C=C(\C)CC/C=C(\C)CC/C=C(\C)CC/C=C(\C)CC/C=C(\C)CC/C=C(\C)CCC=C(C)C)=C(C)C1=O [Q10, Coenzyme Q10]
ECAR rates [1]: significant decrease
PPARGC1A mRNA downregulated ([2]; 100 μM Q10, 16 hours): approximately 20 fold
PRKAA1 mRNA downregulated ([2]; 100 μM Q10, 16 hours): ~6 fold
SNAP25 mRNA downregulated ([2]; 100 μM Q10, 16 hours): ~5 fold
PPARGC1A mRNA ([2]; 100 μM Q10, 48 hours): normalized or were slightly upregulated
PRKAA1 mRNA ([2]; 100 μM Q10, 48 hours): normalized or were slightly upregulated
SNAP25 mRNA downregulated ([2]; 100 μM Q10, 48 hours): approximately 2 fold
levels of Bcl2 [3]: no effect
levels of examined proteins (Western blot) [4]: upregulated or downregulated
Hif1 alpha Lower Band Normalized Volume ([5]; 5g48-50): 21664
Hif1 alpha Lower Band Normalized Volume ([5]; 5g48-100): 19540
Hif1 alpha Lower Band Normalized Volume ([5]; 22G24-50): 18486
Hif1 alpha Lower Band Normalized Volume ([5]; 22G24-100): 17919
Hif1 alpha Lower Band Normalized Volume ([5]; 22G48-50): 17496
Hif1 alpha Lower Band Normalized Volume ([5]; 22G48-100): 23111
Hif1 alpha Upper Band Normalized Volume ([5]; HepG2, 5g24-50): 8998
Hif1 alpha Upper Band Normalized Volume ([5]; HepG2, 5g24-100): 9315
Hif1 alpha Upper Band Normalized Volume ([5]; HepG2, 5g48-50): 8601
Hif1 alpha Upper Band Normalized Volume ([5]; HepG2, 5g48-100): 10192
Hif1 alpha Upper Band Normalized Volume ([5]; HepG2, 22G24-50): 14089
Hif1 alpha Upper Band Normalized Volume ([5]; HepG2, 22G24-100): 8530
Hif1 alpha Upper Band Normalized Volume ([5]; HepG2, 22G48-50): 9416
Hif1 alpha Upper Band Normalized Volume ([5]; HepG2, 22G48-100): 5608
Hif1 alpha protein levels ([5]; mitochondrial preparations of cancer cells): decreased
Hif1a lower band ([5]; whole cell lysates of normal cells): decrease
